Test results as given in PMC6022226, “Novel coumarin-6-sulfonamides as apoptotic anti-proliferative agents: synthesis, in vitro biological evaluation, and QSAR studies” (Journal of Enzyme Inhibition and Medicinal Chemistry, 2018).
Like-named read-outs stand apart in the source and are kept apart here.

Key:
Caco-2 colon cancer = test: In vitro anti-proliferative activity, SRB assay, Caco-2; format: cell-based, human
Experimental: (§1) HepG2 liver cancer, MCF-7 breast cancer and Caco-2 cancer cell lines were obtained from the National Cancer Institute (Cairo, Egypt). Caco-2 cells were grown in DMEM while HepG2 and MCF-7 were grown in RPMI-1640. Media were supplemented with 10% heat-inactivated FBS, 50 units/mL of penicillin and 50 µg/mL of streptomycin and maintained at 37 °C in a humidified atmosphere containing 5% CO2. The cells were maintained as a “monolayer culture” by serial subculturing. Cytotoxicity was determined using the sulforhodamine B (SRB) method as previously described by Skehan et al.[50] Exponentially growing cells were collected using 0.25% trypsin-EDTA and seeded in 96-well plates at 1000–2000 cells/well in supplemented DMEM medium. After 24 h, cells were incubated for 72 h with various concentrations of the tested compounds as well as doxorubicin as the reference compound. Following 72 h of treatment, the cells were fixed with 10% trichloroacetic acid for 1 h at 4 °C. Wells were stained for 10 min at room temperature with 0.4% SRB dissolved in 1% acetic acid. The plates were air dried for 24 h, and the dye was solubilized with Tris–HCl for 5 min on a shaker at 1600 rpm. The optical density (OD) of each well was measured spectrophotometrically at 564 nm with an ELISA microplate reader (ChroMate-4300, FL, USA). The IC50 values were calculated according to the equation for Boltzmann sigmoidal concentrationeresponse curve using the nonlinear regression models (GraphPad, Prism Version 5). The results reported are means of at least three separate experiments. Significant differences were analyzed by one-way ANOVA wherein the differences were considered to be significant at p < .05.
(§2) All the newly synthesized target coumarin sulfonamides were evaluated for their in vitro anti-proliferative activity against three human tumor cancer cell lines, HepG2 hepatocellular carcinoma, MCF-7 breast cancer, and Caco-2 colon cancer, using SRB colorimetric assay as described by Skehan et al.^50 Doxorubicin was involved in the experiments as a reference cytotoxic compound.

[1] = system: HepG2 hepatocellular carcinoma; test: In vitro anti-proliferative activity, SRB assay, HepG2; format: cell-based, human
Experimental: as §1, §2

MCF-7 breast cancer = test: In vitro anti-proliferative activity, SRB assay, MCF-7; format: cell-based, human; details: mean ± SE of three experiments
Experimental: as §1, §2

Bcl-2 = test: ELISA immunoassay, Bcl-2 expression level in HepG2 cells; format: cell-based, human; details: HepG2 cells treated at IC50 concentration
Source text: (§3) The levels of the apoptotic markers (Bax, caspase-3) and the anti-apoptotic marker (Bcl-2) were examined using ELISA colorimetric kits per the manufacturer’s protocol and referring to reported instructions[51] ^, [52].
(§4) The Bcl-2 proteins family is mainly responsible for synchronizing the mitochondrial apoptotic pathway, and classified into two major classes: anti-apoptotic proteins such as Bcl-2 protein and the counteracting pro-apoptotic proteins including Bax protein. In this study, we examined the impact of coumarins 13a and 15a on the level of the anti-apoptotic Bcl2 and the level of the pro-apoptotic Bax (Table 3).

caspase-3 = test: ELISA immunoassay, active caspase-3 level in HepG2 cells; format: cell-based, human; details: HepG2 cells treated at IC50 concentration
Source text: as §3
As a key executioner protease, caspase-3 is activated by upstream initiator caspases as caspase-9.

Bax = test: ELISA immunoassay, Bax expression level in HepG2 cells; format: cell-based, human; details: HepG2 cells treated at IC50 concentration
Source text: as §3, §4

[2] = system: non-tumorigenic human normal lung fibroblast cell line (WI-38); test: In vitro cytotoxicity towards normal WI-38 cells; format: cell-based
[3] = Homo sapiens, Caco-2, 72 h incubation, SRB, mean ± SE of three experiments, read-out: IC50 Caco-2
[4] = Homo sapiens, HepG2, 72 h, 72 h incubation, SRB, mean ± SE of three experiments, read-out: IC50 HepG2
[5] = Homo sapiens, HepG2, external validation test compounds, Table 5, -log IC50 (IC50 in µM), read-out: HepG2 Experimental activity (pIC50) (converted)
[6] = Homo sapiens, MCF7, 72 h incubation
[7] = Homo sapiens, Caco-2, training set, Table 4, -log IC50 (IC50 in µM), read-out: Caco-2 Experimental activity (pIC50) (converted)
[8] = Homo sapiens, HepG2, training set, Table 4, -log IC50 (IC50 in µM), read-out: HepG2 Experimental activity (pIC50) (converted)
[9] = 72 h incubation, SRB, mean ± SE of three experiments, read-out: IC50 Caco-2
[10] = training set, Table 4, -log IC50 (IC50 in µM)
[11] = 72 h incubation, SRB, mean ± SE of three experiments, read-out: IC50 HepG2
[12] = 72 h incubation, read-out: IC50 MCF7

Row | Molecule | IC50 (Caco-2 colon cancer; [3]) | IC50 [1, 4] | IC50 (MCF-7 breast cancer; [6]) | IC50 (Caco-2 colon cancer; [7]) | IC50 [1, 8] | melting point | further results
1 | CC(=O)c1ccc(NS(=O)(=O)c2ccc3oc(=O)ccc3c2)cc1 [Compound 6, N-(4-acetylphenyl)-2-oxo-2H-chromene-6-sulfonamide] | 81.5 ± 6.89 µM | 25.6 ± 1.36 µM | > 200 µM | – | – | – | IC50 (Caco-2 colon cancer; Homo sapiens, Caco-2, external validation test compounds, Table 5, -log IC50 (IC50 in µM), read-out: Caco-2 Experimental activity (pIC50) (converted)): 81.5 µM; IC50 [1, 5]: 25.6 µM
2 | O=c1ccc2cc(S(=O)(=O)Nc3ccc(S(=O)(=O)Nc4ccccn4)cc3)ccc2o1 [Compound 4b, 2-Oxo-N-(4-(N-(pyridin-2-yl)sulfamoyl)phenyl)-2H-chromene-6-sulfonamide] | 66.9 ± 6.07 µM | 8.08 ± 0.51 µM | 22.9 ± 2.04 µM | 66.9 µM | 8.08 µM | 237 to 239 °C | –
3 | CCOC(=O)c1sc(NN=C(C)c2ccc(NS(=O)(=O)c3ccc4oc(=O)ccc4c3)cc2)nc1C [Compound 11b, Ethyl 4-methyl-2–(2-(1–(4-(2-oxo-2H-chromene-6-sulfonamido)phenyl)ethylidene)hydrazinyl)thiazole-5-carboxylate] | 145 ± 8.02 µM | 54.3 ± 3.87 µM | 63.4 ± 5.69 µM | 145 µM | 54.3 µM | 180 to 182 °C | –
4 | N-(4–(1-(2–(4-methyl-5-oxo-4,5-dihydrothiazol-2-yl)hydrazono)ethyl)phenyl)-2-oxo-2H-chromene-6-sulfonamide [Compound 15b] | – | – | – | – | – | – | IC50 (Caco-2 colon cancer; [9]): 175 ± 12.3 µM; Caco-2 Experimental activity (pIC50) (Caco-2 colon cancer; [10]): −2.2428; IC50 [1, 11]: 25.1 ± 2.08 µM; HepG2 Experimental activity (pIC50) [1, 10]: −1.3992; IC50 (MCF-7 breast cancer; [12]): 10.6 ± 1.35 µM
5 | CC(=NNc1nc(C)cs1)c1ccc(NS(=O)(=O)c2ccc3oc(=O)ccc3c2)cc1 [Compound 11a, N-(4–(1-(2–(4-methylthiazol-2-yl)hydrazono)ethyl)phenyl)-2-oxo-2H-chromene-6-sulfonamide] | 10.1 ± 0.9 µM | > 200 µM | 13.9 ± 1.19 µM | – | – | 257 to 259 °C | –
6 | CC(=NNc1nc(C)c(N=Nc2ccc(C)cc2)s1)c1ccc(NS(=O)(=O)c2ccc3oc(=O)ccc3c2)cc1 [Compound 11d, N-(4–(1-(2–(4-methyl-5-(p-tolyldiazenyl)thiazol-2yl)hydrazono)ethyl)phenyl)-2-oxo-2H-chromene-6-sulfonamide] | 16.1 ± 1.28 µM | > 200 µM | > 200 µM | 16.1 µM | – | 258 to 259 °C | –
7 | CC(=NNc1nc(-c2cc3ccccc3oc2=O)cs1)c1ccc(NS(=O)(=O)c2ccc3oc(=O)ccc3c2)cc1 [Compound 13b, 2-Oxo-N-(4–(1-(2–(4-(2-oxo-2H-chromen-3-yl)thiazol-2-yl)hydrazono)ethyl)phenyl)-2H-chromene-6-sulfonamide] | 96.6 ± 5.37 µM | 11.8 ± 1.16 µM | > 200 µM | 96.6 µM | 11.8 µM | 201 to 202 °C | –
8 | 2-Oxo-N-(4–(1-(2–(5-oxo-4,5-dihydrothiazol-2-yl)hydrazono)ethyl)phenyl)-2H-chromene-6-sulfonamide [Compound 15a] | – | – | – | – | – | – | IC50 (Caco-2 colon cancer; [9]): 158 ± 9.39 µM; Caco-2 Experimental activity (pIC50) (Caco-2 colon cancer; [10]): −2.1997; IC50 [1, 11]: 5.03 ± 0.39 µM; fold increased potency than doxorubicin ([1]; HepG2 IC50 ratio): 1.1 fold; HepG2 Experimental activity (pIC50) ([1]; external validation test compounds, Table 5, -log IC50 (IC50 in µM)): –0.7016; Bcl-2, folds of control (Bcl-2): 0.39 folds; Bcl-2 expression level (Bcl-2): 2.73 ng/mg protein; Bcl-2 level, % of control (Bcl-2): 38.6%; Caspase-3 (active caspase-3 level) (caspase-3): 0.2625 ng/mg protein; Caspase-3, folds of control (caspase-3): ~5.7 folds; IC50 (MCF-7 breast cancer; [12]): 11 ± 0.96 µM; Bax expression level (Bax): 394.3 Pg/mg protein; Bax, folds of control (Bax): 14.3 folds; Selectivity index ([2]; WI-38 versus HepG2): 11; IC50 ([2]; normal lung fibroblasts): 55.92 ± 0.39 µM
9 | CC(=NNS(=O)(=O)c1ccc(C)cc1)c1ccc(NS(=O)(=O)c2ccc3oc(=O)ccc3c2)cc1 [Compound 8d, 2-Oxo-N-(4–(1-(2-tosylhydrazono)ethyl)phenyl)-2H-chromene-6-sulfonamide] | 16 ± 1.32 µM | 89.9 ± 7.63 µM | > 200 µM | 16 µM | – | 163 to 165 °C | IC50 [1, 5]: 89.9 µM
10 | CC(=NNC1=NC(=O)C(CC(=O)O)S1)c1ccc(NS(=O)(=O)c2ccc3oc(=O)ccc3c2)cc1 (stereo not shown) [Compound 15c, 2–(4-Oxo-2–(2-(1–(4-(2-oxo-2H-chromene-6-sulfonamido)phenyl)ethylidene) hydrazinyl)-4,5-dihydrothiazol-5-yl)acetic acid] | 46.1 ± 3.17 µM | 7.57 ± 0.66 µM | 16.3 ± 1.48 µM | 46.1 µM | – | 193 to 194 °C | IC50 [1, 5]: 7.57 µM
11 | CC(=NNc1ccccc1)c1ccc(NS(=O)(=O)c2ccc3oc(=O)ccc3c2)cc1 [Compound 8a, 2-Oxo-N-(4–(1-(2-phenylhydrazono)ethyl)phenyl)-2H-chromene-6-sulfonamide] | 8.53 ± 0.72 µM | 27 ± 2.01 µM | 14.3 ± 1.18 µM | 8.53 µM | 27 µM | 178 to 180 °C | –
12 | NS(=O)(=O)c1ccc(NS(=O)(=O)c2ccc3oc(=O)ccc3c2)cc1 [Compound 4a, 2-Oxo-N-(4-sulfamoylphenyl)-2H-chromene-6-sulfonamide] | 193 ± 15.3 µM | 35.5 ± 2.93 µM | 50.7 ± 4.61 µM | 193 µM | 35.5 µM | 266 to 268 °C | –
13 | CC(=NNc1c(Cl)cc(Cl)cc1Cl)c1ccc(NS(=O)(=O)c2ccc3oc(=O)ccc3c2)cc1 [Compound 8c, 2-Oxo-N-(4–(1-(2–(2,4,6-trichlorophenyl)hydrazono)ethyl)phenyl)-2H-chromene-6-sulfonamide] | 76.9 ± 6.59 µM | 29.8 ± 2.21 µM | > 200 µM | 76.9 µM | 29.8 µM | 259 to 260 °C | –
14 | CC(=NNc1nc(C)c(N=Nc2ccc(Cl)cc2)s1)c1ccc(NS(=O)(=O)c2ccc3oc(=O)ccc3c2)cc1 [Compound 11c, N-(4–(1-(2–(5-((4-chlorophenyl)diazenyl)-4-methylthiazol-2-yl)hydrazono)ethyl)phenyl)-2-oxo-2H-chromene-6-sulfonamide] | 108 ± 11.4 µM | 72.5 ± 6.33 µM | 34.7 ± 2.94 µM | 108 µM | 72.5 µM | 250 to 252 °C | –
15 | CC(=NNc1ccc([N+](=O)[O-])cc1[N+](=O)[O-])c1ccc(NS(=O)(=O)c2ccc3oc(=O)ccc3c2)cc1 [Compound 8b, N-(4–(1-(2–(2,4-dinitrophenyl)hydrazono)ethyl)phenyl)-2-oxo-2H-chromene-6-sulfonamide] | 89.6 ± 7.26 µM | – | 126 ± 10.9 µM | 89.6 µM | 11.8 µM | 269 to 270 °C | IC50 ([1]; Homo sapiens, HepG2, 72 h incubation, SRB, mean ± SE of three experiments, read-out: IC50 HepG2): 11.8 ± 1.34 µM
16 | CC(=NNC(N)=S)c1ccc(NS(=O)(=O)c2ccc3oc(=O)ccc3c2)cc1 [Compound 9, 2–(1-(4–(2-Oxo-2H-chromene-6-sulfonamido)phenyl)ethylidene)hydrazine carbothioamide] | > 200 µM | 163 ± 10.2 µM | > 200 µM | – | 163 µM | 253 to 254 °C | –
17 | COc1cccc2c1C(=O)c1c(O)c3c(c(O)c1C2=O)C[C@@](O)(C(=O)CO)C[C@@H]3O[C@H]1C[C@H](N)[C@H](O)[C@H](C)O1 [Doxorubicin, reference compound] | 4.1 ± 1.37 µM | 6.9 ± 2.05 µM | 3.18 ± 0.32 µM | – | – | – | IC50 [1, 11]: 5.43 ± 0.24 µM
